Assay results from US7928210B2, “Nucleoside based proliferation imaging markers” (Siemens Medical Solutions USA, Inc., priority 2007, dated 2011).
Entries after “also recorded” stand apart in the source; their conditions may differ.

Columns and labels:
[1] = system: SK-N-MC cell line (human brain neuroepithelioma, high S phase); assay: Cancer cell uptake, SK-N-MC; conditions: for Cell Uptake: (ii) SK-N-MC; for Uptake and intracellular retention: SK-N-MC cells in vitro
[2] = system: A431 cell line (human skin epidermoid carcinoma, high S phase); assay: Cancer cell uptake, A431; conditions: (i) A431
DNA = assay: Incorporation into DNA compared against FMAU; assay type: cell-based; conditions: data not shown
A431 tumor bearing mice = assay: In vivo imaging of A431 tumor bearing mice (clearance, tumor localization, tumor ratios); design: species or system mouse; conditions: for Localization within the tumor / Type of Clearance: in vivo (rodents), A431 tumor; for Ratio T/M: tumor to muscle; for Ratio T/B: tumor to background, p.i. 45 min
[3] = system: A172 cell line (human brain glioblastoma, low S phase); assay: Cancer cell uptake, A172; conditions: for Cell Uptake: (iii) A172; for Uptake and intracellular retention: A172 cells in vitro
[4] = target: T1, human thymidine kinase 1 (hTK1) (Homo sapiens, UniProt P04183); assay: hTK-1 kinase phosphorylation, metabolites monitored by LC/MS-SIM; conditions: in vitro
T1 sequence (P04183 1-234): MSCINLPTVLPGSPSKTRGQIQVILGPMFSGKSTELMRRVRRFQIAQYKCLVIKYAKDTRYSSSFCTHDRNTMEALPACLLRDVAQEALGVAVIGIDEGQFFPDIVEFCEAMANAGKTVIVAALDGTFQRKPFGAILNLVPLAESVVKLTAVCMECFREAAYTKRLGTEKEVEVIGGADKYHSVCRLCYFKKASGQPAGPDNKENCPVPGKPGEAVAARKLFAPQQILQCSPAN

[5] = cited from earlier work
[6] = system: human liver cancer cells (HepG2); assay: Liver cell uptake by LC/MS-SIM, human liver cancer cells; assay type: cell-based; conditions: HepG2, in vitro
Text: (§1) The mouse liver cell uptake of a small number of thymidine analogs was higher than FLT and thymidine, and the levels of human liver cell uptake were similar to FLT and thymidine. Ideally, low levels of liver cell uptake help increase the tumor to background ratios in the PET image. Furthermore, we examined the metabolic profile of the leads (Ta-1, Ta-4, and Ta-10) in vitro using normal mouse liver cell line (AML12) and human liver cancer cell line (HepG2).

[7] = system: normal mouse liver cells (AML12); assay: Liver cell uptake by LC/MS-SIM, normal mouse liver cells; assay type: cell-based; conditions: AML12, in vitro
Text: as §1

Balb/3T12-3 cells = assay: Cell uptake, Balb/3T12-3; conditions: for Uptake and intracellular retention: BalB/3T12-3 cells in vitro; for Cell Uptake: (iv) Balb/3T12-3

SMILES	Cell Uptake [1]	Cell Uptake [2]	Localization within the tumor (A431 tumor bearing mice)	Type of Clearance (A431 tumor bearing mice)	Cell Uptake [3]	Pi % (phosphorylation percentage) [4] [%]	other results
Cc1cn([C@H]2CC(O)[C@@H](CO)O2)c(=O)n(CC(O)CF)c1=O (stereo partly shown) [Ta-10]	0.031	0.023	≤ 1 % ID/g	Clear through the gut/renal system; localize moderately within the tumor	0.017	27.5	Incorporation into DNA (DNA): substantially lower; Ratio T/M (A431 tumor bearing mice; time not given): 0.35 (T/M)
Cc1cn([C@@H]2O[C@H](CO)C(O)C2O)c(=O)n(CCF)c1=O (stereo partly shown) [Ta-8]	0.097	0.052	≤ 1 % ID/g	Clear through the renal system; localize moderately within the tumor	0.018	18.2	Ratio T/M (A431 tumor bearing mice; time not given): 0.99 (T/M)
Cc1cn([C@H]2CC(O)[C@@H](CO)O2)c(=O)n(CCn2cc(CF)nn2)c1=O (stereo partly shown) [Ta-5]	0.072	0.068	–	–	0.051	10.2	–
Cc1cn([C@@H]2O[C@H](CO)C(O)C2OCCF)c(=O)[nH]c1=O (stereo partly shown) [Ta-7]	0.083	0.027	≤ 1 % ID/g	Clear through the gut/ hepatobiliary system; localize mainly in the gut; a small percentage of the inject dose penetrate and localize within the tumor	0.004	5.6	Ratio T/M (A431 tumor bearing mice; time not given): 1.05 (T/M)
O=c1[nH]c(=O)n([C@H]2CC(O)[C@@H](CO)O2)cc1-c1cn(CCF)nn1 (stereo partly shown) [FLT-Click-3]	–	–	–	Clear through the gut; but did not localize within the tumor	–	0	Ratio T/B (A431 tumor bearing mice): 1.1 (T/B; p.i. 45 min)
Cc1cn([C@H]2CC(F)[C@@H](CO)O2)c(=O)[nH]c1=O (stereo partly shown) [FLT, 3′-[^18F]fluoro-3′-deoxythymidine, reference compound]	–	–	–	Clear through renal system; localize within the tumor	–	31	Injected dose per gram in tumors, on average ([5]; background section): 5%
Cc1cn([C@@H]2O[C@H](CO)C(O)C2F)c(=O)[nH]c1=O (stereo partly drawn) [FMAU, 1-(2′-deoxy-2′-[^18F]fluoro-β-D-arabinofuranosyl)-5-methyluracil, reference compound]	0.011	0.012	–	–	0.015	80	Incorporation into DNA (DNA): very high; Type of Clearance ([5]; known / literature (Sun et al. 2005 for FMAU; 11C label for thymidine)): Hepatobiliary clearance^c
Cc1cn([C@H]2CC(O)[C@@H](CO)O2)c(=O)n(Cc2cn([C@H](C(=O)NCc3ccccc3)C(C)C)nn2)c1=O (stereo partly shown) [Ta-6233]	–	–	–	–	–	71.5	–
Cc1cn([C@H]2CC(n3cc(CF)nn3)[C@@H](CO)O2)c(=O)[nH]c1=O (stereo partly shown) [FLT-Click-1]	–	–	–	Clear very rapidly from the blood; localize mainly in the bladder	–	6.1	–
Cc1cn([C@H]2CC(F)[C@@H](CO)O2)c(=O)n(CCF)c1=O (stereo partly shown) [Ta-4F]	0.063	0.075	–	–	0.067	9.2	–
Cc1cn([C@@H]2O[C@H](CO)C(O)C2F)c(=O)n(CCF)c1=O (stereo partly shown) [Ta-9]	0.014	0.027	–	–	0.009	1.4	–
Cc1cn([C@H]2CC(O)[C@@H](CO)O2)c(=O)n(CCF)c1=O (stereo partly shown) [Ta-4, 3-N-(2′-[^18F]fluoroethyl)-thymidine]	0.218	0.172	2-3.5 % ID/g	has less liver uptake than Ta-1, localizes more strongly within the A-431 based tumor and possesses a clearance mechanism similar to FLT; also recorded: Less liver uptake than Ta-1; localize more strongly within the A431 based tumor; possess a clearance mechanism similar to FLT	0.142	77.4	Uptake and intracellular retention [1]: favorably taken up and retained intracellularly; Incorporation into DNA (DNA): substantially lower; Liver cell uptake [6]: less than Ta-1; Ratio T/M (A431 tumor bearing mice; p.i. 50 min): 2.3 (T/M; p.i 50 min); Liver cell uptake [7]: less than Ta-1; Uptake and intracellular retention [3]: favorably taken up and retained intracellularly; Uptake and intracellular retention (Balb/3T12-3 cells): favorably taken up and retained intracellularly
Cc1cn([C@H]2CC(O)[C@@H](CO)O2)c(=O)n(Cc2cn(CCF)nn2)c1=O (stereo partly shown) [Ta-1]	0.081	0.045	≤ 1 % ID/g	despite rapid gut clearance, a small percentage of the inject dose penetrated and localized within the tumor; also recorded: Clear through the gut/ hepatobiliary system; localize mainly in the gut; a small percentage of the inject dose penetrate and localize within the tumor	0.042	65.6	Uptake and intracellular retention [1]: favorably taken up and retained intracellularly; Ratio T/M (A431 tumor bearing mice; p.i. 50 min): 2.1 (T/M; p.i. 50 min); Uptake and intracellular retention [3]: favorably taken up and retained intracellularly; Cell Uptake (Balb/3T12-3 cells): 0.064; Uptake and intracellular retention (Balb/3T12-3 cells): favorably taken up and retained intracellularly
Cc1cn([C@H]2CC(O)[C@@H](CO)O2)c(=O)n(Cc2cn(Cc3cccc(Br)c3)nn2)c1=O (stereo partly shown) [Ta-4D]	–	–	–	–	–	51.9	–
Cc1cn([C@H]2CC(O)[C@@H](CO)O2)c(=O)n(Cc2cn(Cc3cc(F)ccn3)nn2)c1=O (stereo partly shown) [Ta-2]	0.030	0.019	–	–	0.071	39.2	Cell Uptake (Balb/3T12-3 cells): 0.090
Cc1cn([C@@H]2O[C@H](CO)C(O)C2O)c(=O)n(CCF)c1=O (stereo partly shown) [Ta-11]	0.02	0.03	≤ 1 % ID/g	Clear through the renal system; localize moderately within the tumor	0.006	9.8	Ratio T/M (A431 tumor bearing mice; time not given): 0.52 (T/M)
Cc1cn([C@H]2CC(O)[C@@H](CO)O2)c(=O)n(CCCF)c1=O (stereo partly shown) [Ta-14]	–	–	–	–	–	–	Incorporation into DNA (DNA): substantially lower
Cc1cn([C@H]2CC(F)[C@@H](CO)O2)c(=O)n(Cc2cn(CCF)nn2)c1=O (stereo partly shown) [FLT-Click-2]	0.080	0.003	≤ 1 % ID/g	Clear through the gut/ hepatobiliary system; localize moderately within the tumor	–	4.5	Ratio T/B (A431 tumor bearing mice): 1.75 (T/B; (p.i. 45 min)
Cc1cn([C@H]2CC(F)[C@@H](CO)O2)c(=O)n(CCF)c1=O (stereo partly shown) [Ta-6]	0.007	0.023	–	–	0.004	4.5	–
Cc1cn([C@H]2CC(O)[C@@H](CO)O2)c(=O)n(Cc2cn([C@H](C(=O)NCc3cc(F)ccn3)C(C)C)nn2)c1=O (stereo partly shown) [Ta-3]	0.059	0.004	–	large localization of the tracer in the gut and clearance through the bowels; also recorded: Clear through the bowels; localize mainly in the gut	0.093	25.5	Cell Uptake (Balb/3T12-3 cells): 0.117
